This passage reports IC50 results from patent publication US20250361230A1, “LATS Inhibitors and Uses Thereof” (The USA, as Represented by the Secretary, Dept. of Heath …, priority 2022, published 2025).

Common to all, as to type: biochemical
The target in one assay is AKT (Homo sapiens, UniProt P31749). Put plainly: RBC HotSpot kinase assay (33P-ATP, P81 filter-binding), AKT. To be noted: biochemical kinase inhibition; read-out: AKT IC50. An outline of the steps:
(§1)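 Radiometric 33P-ATP kinase reaction in 20 mM Hepes pH 7.5, 10 mM MgCl2, 1 mM EGTA, 0.01% Brij35, 0.02 mg/ml BSA, 0.1 mM Na3VO4, 2 mM DTT, 1% DMSO. Compound preincubated with kinase and substrate 20 min, then 2 h at room temperature; P81 filter-binding read-out. IC50 (nM) from 10-point singlet curves.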

For another assay, the target named is T1, LATS2 (Homo sapiens, UniProt Q9NRM7).
T1 sequence (Q9NRM7 1-1088): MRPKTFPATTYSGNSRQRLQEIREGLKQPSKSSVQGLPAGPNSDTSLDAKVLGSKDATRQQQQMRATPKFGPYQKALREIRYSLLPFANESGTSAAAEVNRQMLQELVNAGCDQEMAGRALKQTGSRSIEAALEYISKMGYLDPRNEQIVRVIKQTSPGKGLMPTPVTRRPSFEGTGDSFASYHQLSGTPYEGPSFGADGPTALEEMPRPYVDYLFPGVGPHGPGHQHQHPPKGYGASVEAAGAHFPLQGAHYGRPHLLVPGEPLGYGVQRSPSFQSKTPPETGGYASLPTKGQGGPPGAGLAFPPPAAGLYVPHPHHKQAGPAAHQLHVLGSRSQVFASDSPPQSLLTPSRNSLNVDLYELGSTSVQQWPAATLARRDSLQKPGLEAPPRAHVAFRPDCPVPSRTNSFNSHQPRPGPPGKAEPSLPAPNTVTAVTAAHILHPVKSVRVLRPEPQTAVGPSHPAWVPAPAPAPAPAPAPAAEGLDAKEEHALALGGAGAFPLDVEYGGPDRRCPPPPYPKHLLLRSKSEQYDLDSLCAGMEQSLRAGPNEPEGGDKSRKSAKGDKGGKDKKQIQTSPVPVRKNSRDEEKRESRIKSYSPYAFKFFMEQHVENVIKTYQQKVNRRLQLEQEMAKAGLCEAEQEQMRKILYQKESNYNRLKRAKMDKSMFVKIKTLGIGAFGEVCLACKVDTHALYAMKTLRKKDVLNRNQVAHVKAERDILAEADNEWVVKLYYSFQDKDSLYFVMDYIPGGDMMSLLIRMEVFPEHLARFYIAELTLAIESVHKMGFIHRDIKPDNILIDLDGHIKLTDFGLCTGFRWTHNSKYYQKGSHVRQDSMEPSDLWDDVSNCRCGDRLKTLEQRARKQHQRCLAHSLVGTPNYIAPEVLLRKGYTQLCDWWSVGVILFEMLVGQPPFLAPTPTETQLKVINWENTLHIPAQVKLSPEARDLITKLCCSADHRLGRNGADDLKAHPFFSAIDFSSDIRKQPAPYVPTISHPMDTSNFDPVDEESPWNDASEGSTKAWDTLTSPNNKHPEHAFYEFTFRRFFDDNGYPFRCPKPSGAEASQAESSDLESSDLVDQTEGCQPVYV
Put plainly: RBC HotSpot kinase assay (33P-ATP, P81 filter-binding), LATS2. To be noted: biochemical kinase inhibition; read-out: LATS2 IC50. An outline of the steps:
as §1

Another assay concerns the target T2, LATS1 (Homo sapiens, UniProt O95835).
T2 sequence (O95835 1-1130): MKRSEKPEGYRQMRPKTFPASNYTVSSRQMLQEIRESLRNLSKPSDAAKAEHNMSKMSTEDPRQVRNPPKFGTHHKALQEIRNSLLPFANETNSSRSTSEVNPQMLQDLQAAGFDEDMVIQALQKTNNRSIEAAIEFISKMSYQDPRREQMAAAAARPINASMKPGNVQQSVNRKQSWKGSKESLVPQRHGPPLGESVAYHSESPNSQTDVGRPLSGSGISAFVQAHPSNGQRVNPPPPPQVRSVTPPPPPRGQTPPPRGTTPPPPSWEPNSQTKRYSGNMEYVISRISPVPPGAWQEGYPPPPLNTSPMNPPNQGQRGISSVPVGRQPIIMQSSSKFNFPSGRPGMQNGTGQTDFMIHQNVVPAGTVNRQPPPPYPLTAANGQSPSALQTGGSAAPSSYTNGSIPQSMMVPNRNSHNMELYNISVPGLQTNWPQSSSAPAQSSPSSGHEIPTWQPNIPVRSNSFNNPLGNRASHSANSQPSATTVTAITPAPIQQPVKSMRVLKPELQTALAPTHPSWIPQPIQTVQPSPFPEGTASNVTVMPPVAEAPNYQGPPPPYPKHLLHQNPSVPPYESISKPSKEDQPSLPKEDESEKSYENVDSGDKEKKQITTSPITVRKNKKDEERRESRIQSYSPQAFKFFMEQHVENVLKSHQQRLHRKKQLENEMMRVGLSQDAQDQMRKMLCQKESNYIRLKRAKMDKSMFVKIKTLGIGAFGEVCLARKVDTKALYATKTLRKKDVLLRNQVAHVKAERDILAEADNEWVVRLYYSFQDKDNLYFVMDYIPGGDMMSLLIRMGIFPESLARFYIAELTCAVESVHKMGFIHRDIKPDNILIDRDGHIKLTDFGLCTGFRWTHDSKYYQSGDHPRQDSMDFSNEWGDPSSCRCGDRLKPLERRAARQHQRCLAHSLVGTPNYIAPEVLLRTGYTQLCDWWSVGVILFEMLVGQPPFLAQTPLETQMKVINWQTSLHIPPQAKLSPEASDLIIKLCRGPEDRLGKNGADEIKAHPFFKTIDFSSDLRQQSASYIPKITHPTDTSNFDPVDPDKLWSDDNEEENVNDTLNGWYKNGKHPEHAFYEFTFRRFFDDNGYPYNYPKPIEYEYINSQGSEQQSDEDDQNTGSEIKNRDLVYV
Put plainly: RBC HotSpot kinase assay (33P-ATP, P81 filter-binding), LATS1. To be noted: biochemical kinase inhibition; read-out: LATS1 IC50. A digest of the protocol:
as §1

Structures are written as SMILES.

Sequence of AKT (P31749 whole entry): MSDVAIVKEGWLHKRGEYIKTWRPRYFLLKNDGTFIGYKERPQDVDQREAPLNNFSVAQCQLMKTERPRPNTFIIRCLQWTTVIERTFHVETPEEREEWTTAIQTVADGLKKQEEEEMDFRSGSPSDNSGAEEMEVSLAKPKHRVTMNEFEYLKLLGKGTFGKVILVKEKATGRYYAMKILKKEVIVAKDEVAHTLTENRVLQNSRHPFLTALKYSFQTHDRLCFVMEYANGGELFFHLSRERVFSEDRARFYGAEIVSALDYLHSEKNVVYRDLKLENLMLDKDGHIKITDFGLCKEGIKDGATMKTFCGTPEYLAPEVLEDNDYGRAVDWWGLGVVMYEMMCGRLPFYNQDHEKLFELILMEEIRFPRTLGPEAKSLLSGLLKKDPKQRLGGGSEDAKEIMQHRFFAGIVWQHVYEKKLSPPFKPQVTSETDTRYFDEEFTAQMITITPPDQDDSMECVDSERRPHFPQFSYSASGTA

Take `CN[C@@H](CO)C(=O)N1C[C@@H](C)[C@](O)(c2c(C)cc(-c3ccnc4[nH]cc(C#N)c34)cc2F)[C@@H](C)C1` [Compound 2009, 4-(3-fluoro-4-((3S,4R,5R)-4-hydroxy-3,5-dimethyl-1-(methyl-L-seryl)piperidin-4-yl)-5-methylphenyl)-1H-pyrrolo[2,3-b]pyridine-3-carbonitrile]: the values for the IC50 on AKT, on LATS2 and on LATS1 were 244 nM, 2.5 nM and 4.8 nM, respectively.

On to `Cc1cc(-c2ccnc3[nH]cc(C#N)c23)ccc1[C@@]1(O)[C@H](C)CN(C(=O)[C@@H](C)N)C[C@@H]1C` [Compound 2010, 4-(4-((3S,4S,5R)-1-(D-alanyl)-4-hydroxy-3,5-dimethylpiperidin-4-yl)-3-methylphenyl)-1H-pyrrolo[2,3-b]pyridine-3-carbonitrile], for which the figures for the IC50 at AKT, on LATS2 and at LATS1 were 89.4 nM, 8.5 nM and 13.4 nM, respectively.

For the compound `Cc1cc(-c2ccnc3[nH]cc(C#N)c23)cc(F)c1[C@@]1(O)[C@H](C)CN(C(=O)[C@@H]2CCCN2)C[C@@H]1C` [Compound 2013, 4-(4-((3S,4S,5R)-1-(L-prolyl)-4-hydroxy-3,5-dimethylpiperidin-4-yl)-3-fluoro-5-methylphenyl)-1H-pyrrolo[2,3-b]pyridine-3-carbonitrile], the figures for the IC50 at AKT, at LATS2 and on LATS1 were 330 nM, 2.9 nM and 5.7 nM, respectively.

Take `Cc1cc(-c2ccnc3[nH]cc(C#N)c23)ccc1[C@@]1(O)[C@H](C)CN(C(=O)[C@H](N)CO)C[C@@H]1C` [Compound 2016, 4-(4-((3S,4S,5R)-1-(D-seryl)-4-hydroxy-3,5-dimethylpiperidin-4-yl)-3-methylphenyl)-1H-pyrrolo[2,3-b]pyridine-3-carbonitrile]: the IC50 was 48.8 nM at AKT, 6.4 nM on LATS2 and 9.2 nM on LATS1.

`Cc1cc(-c2ccnc3[nH]cc(C#N)c23)cc(F)c1[C@@]1(O)[C@H](C)CN(C(=O)C(C)(C)N)C[C@@H]1C` [Compound 2018, 4-(4-((3S,4s,5R)-1-(2-amino-2-methylpropanoyl)-4-hydroxy-3,5-dimethylpiperidin-4-yl)-3-fluoro-5-methylphenyl)-1H-pyrrolo[2,3-b]pyridine-3-carbonitrile]: the IC50 on AKT stood at 610 nM; at LATS2, 7.2 nM; at LATS1, 11.1 nM.

Regarding `Cc1cc(-c2ccnc3[nH]cc(C#N)c23)cc(F)c1[C@@]1(O)[C@H](C)CN(C(=O)C(N)C(F)F)C[C@@H]1C` (stereo partly drawn) [Compound 2019, 4-(4-((3S,4s,5R)-1-(2-amino-3,3-difluoropropanoyl)-4-hydroxy-3,5-dimethylpiperidin-4-yl)-3-fluoro-5-methylphenyl)-1H-pyrrolo[2,3-b]pyridine-3-carbonitrile], the IC50 worked out at 1220 nM at AKT, 7 nM on LATS2 and 7 nM at LATS1.

Consider `Cc1cc(-c2ccnc3[nH]cc(C#N)c23)cc(F)c1[C@@]1(O)[C@H](C)CN(C(=O)[C@@H](CO)N(C)C)C[C@@H]1C` [Compound 2021, 4-(4-((3S,4S,5R)-1-(dimethyl-D-seryl)-4-hydroxy-3,5-dimethylpiperidin-4-yl)-3-fluoro-5-methylphenyl)-1H-pyrrolo[2,3-b]pyridine-3-carbonitrile], for which the IC50 worked out at 223 nM at AKT, 3.4 nM on LATS2 and 5.1 nM at LATS1.

For `Cc1cc(-c2ccnc3[nH]cc(C#N)c23)ccc1[C@@]1(O)[C@H](C)CN(C(=O)[C@@H](CO)N(C)C)C[C@@H]1C` [Compound 2022, 4-(4-((3S,4S,5R)-1-(dimethyl-D-seryl)-4-hydroxy-3,5-dimethylpiperidin-4-yl)-3-methylphenyl)-1H-pyrrolo[2,3-b]pyridine-3-carbonitrile], the IC50 at AKT worked out at 251 nM; at LATS2 it was 3 nM; at LATS1, 5.3 nM.

One may read the IC50 as the concentration at which inhibition is half-maximal.
